Reference: publication PMC10458893, “Design of Protegrin-1 Analogs with Improved Antibacterial Selectivity” (Pharmaceutics, 2023)
In brackets after ≈: the same amount, converted by molar mass. Read-outs that look alike come from different tables or passages of the source. Positions of bridges follow the written chain, without caps; N, C: chain ends. Residues, ends and D or L forms follow the SMILES beside them.

Legend:
[1] = system: E. coli ATCC 25922; test: Systemic septicemia infection mice model; format: in vivo; conditions: BALB/c mice n = 5, i.p. E. coli ATCC 25922 10^6 CFU with mucin; 10 mg/kg i.p. at 1 h and 4 h; 7 days
Procedure: Experiments were performed with male and female 8–10-week-old BALB/c mice (22–24 g, “Andreevka” laboratory animal nursery FMBA, Russia) according to the previously described method. Briefly, a total of 3 groups of 5 mice per group were infected by intraperitoneal (i.p.) injection of the bacterial inoculum (E. coli ATCC 25922), 10^6 colony forming units (CFU) per animal, in the presence of mucin. All the animals received two i.p. injections: 1 h and 4 h after bacterial challenge. The first group received ciprofloxacin (Sigma-Aldrich, St. Louis, MO, USA) as a positive control at a dose of 10 mg/kg per injection. The second group received peptide [V16R] at a dose of 5 mg/kg per injection. The third group received PBS as a vehicle control. Animals were monitored for 7 days post-infection. All the surviving mice were euthanized by CO2 asphyxiation. The spleen was aseptically removed, homogenized, serially diluted, and plated on Endo agar to detect CFU in a sample.

[2] = system: freshly isolated human erythrocytes (hRBCs); test: Hemolysis assay (hemoglobin release); format: cell-based; conditions: red cells of human, 64
From the text: To assess the hemolytic activity of the compounds, freshly isolated human erythrocytes (hRBCs) were used according to the methodology described in a previous study. Melittin was used as a positive peptide control that induces significant hemolysis. Isotonic phosphate buffer (PBS) served as a negative control, while 0.1% Triton X-100 solution was used as a control for complete hemolysis.

[3] = system: K. pneumoniae ATCC 700603; format: cell-based, Klebsiella pneumoniae; conditions: ATCC 700603, 24 h
Procedure: (§1) The antimicrobial activity of the peptides was determined using two-fold serial dilutions in sterile 96-well flat-bottom polystyrene microplates (Eppendorf, Hamburg, Germany) (Cat. No. 0030730011), as previously described. The following strains of bacteria were used: E. coli ATCC 25922, E. coli ML35p (ATCC collection), E. coli BW 25113 (Keio collection), Pseudomonas aeruginosa PAO1 (ATCC collection), P. aeruginosa ATCC 27853, Klebsiella pneumoniae ATCC 700603, Staphylococcus aureus 209P (ATCC collection), S. aureus ATCC 29213, and Micrococcus luteus B-1314 (VKM collection). Acinetobacter baumannii (strain XDR CI 2675) was provided by the I.M. Sechenov First Moscow State Medical University hospital. After a 24 h incubation period, the metabolic activity of the bacteria was assessed by adding 20 µL of a redox indicator, resazurin (Sigma-Aldrich, St. Louis, MO, USA), at a concentration of 0.1 mg/mL, to the wells. The plate was then incubated for a further two hours. The minimum inhibitory concentration (MIC) was determined as the lowest concentration of the peptide at which no color change in the resazurin indicator was observed. The results were presented as median values, which were determined based on at least three independent experiments carried out in triplicate.

[4] = system: M. luteus B-1314; format: cell-based, Micrococcus luteus; conditions: B-1314, 24 h
Procedure: as §1

[5] = system: P. aeruginosa ATCC 27853; format: cell-based, Pseudomonas aeruginosa; conditions: ATCC 27853, 24 h
Procedure: as §1

[6] = system: P. aeruginosa PAO1; format: cell-based, Pseudomonas aeruginosa; conditions: PAO1, 24 h
Procedure: as §1

[7] = system: E. coli ML35p; format: cell-based
Procedure: as §1

[8] = system: Acinetobacter baumannii (strain XDR CI 2675); format: cell-based
Procedure: as §1

[9] = system: E. coli BW 25113; format: cell-based; conditions: two-fold serial dilutions, 24 h incubation, resazurin read-out; median of at least three independent experiments in triplicate
Procedure: as §1

[10] = system: all the test strains; format: cell-based; conditions: geometric mean over the 10 test strains
Procedure: as §1

[11] = system: E. coli ATCC 25922; format: cell-based; conditions: ATCC 25922, 24 h
Procedure: as §1

[12] = system: S. aureus ATCC 29213; format: cell-based, Staphylococcus aureus; conditions: ATCC 29213, 24 h
Procedure: as §1

[13] = system: S. aureus 209P; format: cell-based, Staphylococcus aureus; conditions: 24 h
Procedure: as §1

[14] = system: human keratinocyte cell line (HaCaT); test: Cytotoxicity MTT assay; format: cell-based; conditions: 18 h, 128
Procedure: In order to evaluate the cytotoxicity of the peptides against a human keratinocyte cell line (HaCaT, Cat. No. 300493) (Cell Lines Service, Köln, Germany), the colorimetric 3-(4,5-dimethylthiazol-2-yl)-2,5-diphenyltetrazolium bromide (MTT) dye reduction assay was performed, as described in a previous publication. Wells containing no peptide were used as a 100% survival control. Each peptide was tested in two separate experiments to ensure the reliability of the results.

[15] = two-fold serial dilutions, 24 h incubation, resazurin read-out, median of at least three independent experiments in triplicate
[16] = strain XDR CI 2675, two-fold serial dilutions, 24 h incubation, resazurin read-out, median of at least three independent experiments in triplicate

## O=C(O)c1cn(C2CC2)c2cc(N3CCNCC3)c(F)cc2c1=O [ciprofloxacin, reference compound]
[1]
  Survival of mice: survival of all mice

## CC(C)C[C@H](NC(=O)[C@H](CCCNC(=N)N)NC(=O)CNC(=O)CNC(=O)[C@@H](N)CCCNC(=N)N)C(=O)N[C@H]1CSSC[C@@H](C(=O)N[C@H](C(=O)NCC(=O)N[C@@H](CCCNC(=N)N)C(=O)O)C(C)C)NC(=O)[C@H](CCCNC(=N)N)NC(=O)[C@@H]2CSSC[C@H](NC(=O)[C@H](Cc3ccc(O)cc3)NC1=O)C(=O)N[C@@H](CCCNC(=N)N)C(=O)N[C@@H](CCCNC(=N)N)C(=O)N[C@@H](CCCNC(=N)N)C(=O)N[C@@H](Cc1ccccc1)C(=O)N2 [[V14R]] (H-RGGRLCYCRRRFCRCVGR-OH; disulfide 6-15, 8-13; N-terminus and C-terminus assumed)
[2]
  Hemolytic activity, % (64 μM): 1.2 (±0.43) %
[3]
  MIC, K. pneumoniae ATCC 700603: 32 µM (≈ 70.8 µg/mL)
[4]
  MIC, M. luteus B-1314: 2 µM (≈ 4.43 µg/mL)
[5]
  MIC, P. aeruginosa ATCC 27853: >32 µM
[6]
  MIC, P. aeruginosa PAO1: 32 µM (≈ 70.8 µg/mL)
[7]; ML35p, 24 h
  MIC, E. coli ML35p: 4 µM (≈ 8.85 µg/mL)
[8]; strain XDR CI 2675, 24 h
  MIC, A. baumannii: 2 µM (≈ 4.43 µg/mL)
[9]
  MIC, E. coli BW 25113: 2 µM (≈ 4.43 µg/mL)
[10]
  MIC (GM), geometric mean of the peptide's MICs against all the test strains: 9.8 µM
[11]
  MIC, E. coli ATCC 25922: 4 µM (≈ 8.85 µg/mL)
[12]
  MIC, S. aureus ATCC 29213: 32 µM (≈ 70.8 µg/mL)
[13]
  MIC, S. aureus 209P: 32 µM (≈ 70.8 µg/mL)
[14]
  Cell Viability, % (128 μM): 98.6 (± 6.0) %

## CC(C)[C@H](NC(=O)[C@@H]1CSSC[C@H](NC(=O)[C@H](CCCNC(=N)N)NC(=O)[C@H](CCCNC(=N)N)NC(=O)CNC(=O)CNC(=O)[C@@H](N)CCCNC(=N)N)C(=O)N[C@@H](Cc2ccc(O)cc2)C(=O)N[C@H]2CSSC[C@H](NC(=O)[C@H](Cc3ccccc3)NC(=O)[C@H](CCCNC(=N)N)NC(=O)[C@H](CCCNC(=N)N)NC(=O)[C@H](CCCNC(=N)N)NC2=O)C(=O)N[C@@H](C(C)C)C(=O)N1)C(=O)NCC(=O)N[C@@H](CCCNC(=N)N)C(=O)O [[L5R]] (H-RGGRRCYCRRRFCVCVGR-OH; disulfide 6-15, 8-13; N-terminus and C-terminus assumed)
[2]
  Hemolytic activity, % (64 μM): 14.1 (±2.13) %
[3]
  MIC, K. pneumoniae ATCC 700603: 8 µM (≈ 17.6 µg/mL)
[4]
  MIC, M. luteus B-1314: 1 µM (≈ 2.2 µg/mL)
[5]
  MIC, P. aeruginosa ATCC 27853: 1 µM (≈ 2.2 µg/mL)
[6]
  MIC, P. aeruginosa PAO1: 1 µM (≈ 2.2 µg/mL)
[7]; [15]
  MIC, E. coli ML35p: 0.5 µM (≈ 1.1 µg/mL)
[8]; [16]
  MIC, A. baumannii: 0.5 µM (≈ 1.1 µg/mL)
[9]
  MIC, E. coli BW 25113: 0.25 µM (≈ 0.55 µg/mL)
[10]
  MIC (GM), geometric mean of the peptide's MICs against all the test strains: 1.2 µM
[11]
  MIC, E. coli ATCC 25922: 1 µM (≈ 2.2 µg/mL)
[12]
  MIC, S. aureus ATCC 29213: 4 µM (≈ 8.8 µg/mL)
[13]
  MIC, S. aureus 209P: 4 µM (≈ 8.8 µg/mL)
[14]
  Cell Viability, % (128 μM): 7.7 (± 4.64) %

## CC(C)C[C@H](NC(=O)[C@H](CCCNC(=N)N)NC(=O)CNC(=O)CNC(=O)[C@@H](N)CCCNC(=N)N)C(=O)N[C@H]1CSSC[C@@H](C(=O)N[C@H](C(=O)NCC(=O)N[C@@H](CCCNC(=N)N)C(=O)O)C(C)C)NC(=O)[C@H](C(C)C)NC(=O)[C@@H]2CSSC[C@H](NC(=O)[C@H](Cc3ccc(O)cc3)NC1=O)C(=O)N[C@@H](CCCNC(=N)N)C(=O)N[C@@H](CCCNC(=N)N)C(=O)N[C@@H](CCCNC(=N)N)C(=O)N[C@@H](Cc1ccccc1)C(=O)N2 [PG-1, Protegrin-1] (H-RGGRLCYCRRRFCVCVGR-OH; disulfide 6-15, 8-13; N-terminus and C-terminus assumed)
[2]
  Hemolytic activity, % (64 μM): 96.3 (±10.72) %
[3]
  MIC, K. pneumoniae ATCC 700603: 1 µM (≈ 2.16 µg/mL)
[4]
  MIC, M. luteus B-1314: 0.25 µM (≈ 0.539 µg/mL)
[5]
  MIC, P. aeruginosa ATCC 27853: 0.25 µM (≈ 0.539 µg/mL)
[6]
  MIC, P. aeruginosa PAO1: 0.5 µM (≈ 1.08 µg/mL)
[7]; [15]
  MIC, E. coli ML35p: 0.25 µM (≈ 0.539 µg/mL)
[8]; [16]
  MIC, A. baumannii: 0.25 µM (≈ 0.539 µg/mL)
[9]
  MIC, E. coli BW 25113: 0.125 µM (≈ 0.27 µg/mL)
[10]
  MIC (GM), geometric mean of the peptide's MICs against all the test strains: 0.4 µM
[11]
  MIC, E. coli ATCC 25922: 0.5 µM (≈ 1.08 µg/mL)
[12]
  MIC, S. aureus ATCC 29213: 1 µM (≈ 2.16 µg/mL)
[13]
  MIC, S. aureus 209P: 0.5 µM (≈ 1.08 µg/mL)
[14]
  Cell Viability, % (128 μM): 6.1 (±2.07) %

## CC(C)C[C@H](NC(=O)[C@H](CCCNC(=N)N)NC(=O)CNC(=O)CNC(=O)[C@@H](N)CCCNC(=N)N)C(=O)N[C@H]1CSSC[C@@H](C(=O)N[C@@H](CCCNC(=N)N)C(=O)NCC(=O)N[C@@H](CCCNC(=N)N)C(=O)O)NC(=O)[C@H](C)NC(=O)[C@@H]2CSSC[C@H](NC(=O)[C@H](Cc3ccc(O)cc3)NC1=O)C(=O)N[C@@H](CCCNC(=N)N)C(=O)N[C@@H](CCCNC(=N)N)C(=O)N[C@@H](CCCNC(=N)N)C(=O)N[C@@H](Cc1ccccc1)C(=O)N2 [[V14A,V16R]] (H-RGGRLCYCRRRFCACRGR-OH; disulfide 6-15, 8-13; N-terminus and C-terminus assumed)
[2]
  Hemolytic activity, % (64 μM): 1.1 (±0.15) %
[3]
  MIC, K. pneumoniae ATCC 700603: 32 µM (≈ 69.9 µg/mL)
[4]
  MIC, M. luteus B-1314: 4 µM (≈ 8.74 µg/mL)
[5]
  MIC, P. aeruginosa ATCC 27853: 4 µM (≈ 8.74 µg/mL)
[6]
  MIC, P. aeruginosa PAO1: 8 µM (≈ 17.5 µg/mL)
[7]; ML35p, 24 h
  MIC, E. coli ML35p: 1 µM (≈ 2.19 µg/mL)
[8]; strain XDR CI 2675, 24 h
  MIC, A. baumannii: 0.5 µM (≈ 1.09 µg/mL)
[9]
  MIC, E. coli BW 25113: 2 µM (≈ 4.37 µg/mL)
[10]
  MIC (GM), geometric mean of the peptide's MICs against all the test strains: 4.9 µM
[11]
  MIC, E. coli ATCC 25922: 2 µM (≈ 4.37 µg/mL)
[12]
  MIC, S. aureus ATCC 29213: 32 µM (≈ 69.9 µg/mL)
[13]
  MIC, S. aureus 209P: 32 µM (≈ 69.9 µg/mL)
[14]
  Cell Viability, % (128 μM): 110.6 (± 6.68) %
